Measurements from ChEMBL document CHEMBL1144973, “Design, synthesis, and structure-activity relationship of a new class of amidinophenylurea-based factor VIIa inhibitors” (Bioorg Med Chem Lett, 2003).
pKi: −log10 of the molar value.

What was measured:
Coagulation factor X = Coagulation factor X (Homo sapiens, UniProt P00742); test: In vitro inhibitory activity against […] coagulation factor (fXa)
Prothrombin = Prothrombin (Homo sapiens, UniProt P00734); test: In vitro inhibitory activity against thrombin
Coagulation factor VII = biological target: T1, Coagulation factor VII (Homo sapiens, UniProt P08709); test: In vitro inhibitory activity against coagulation factor VII (fVIIa)
T1 sequence (P08709 whole entry): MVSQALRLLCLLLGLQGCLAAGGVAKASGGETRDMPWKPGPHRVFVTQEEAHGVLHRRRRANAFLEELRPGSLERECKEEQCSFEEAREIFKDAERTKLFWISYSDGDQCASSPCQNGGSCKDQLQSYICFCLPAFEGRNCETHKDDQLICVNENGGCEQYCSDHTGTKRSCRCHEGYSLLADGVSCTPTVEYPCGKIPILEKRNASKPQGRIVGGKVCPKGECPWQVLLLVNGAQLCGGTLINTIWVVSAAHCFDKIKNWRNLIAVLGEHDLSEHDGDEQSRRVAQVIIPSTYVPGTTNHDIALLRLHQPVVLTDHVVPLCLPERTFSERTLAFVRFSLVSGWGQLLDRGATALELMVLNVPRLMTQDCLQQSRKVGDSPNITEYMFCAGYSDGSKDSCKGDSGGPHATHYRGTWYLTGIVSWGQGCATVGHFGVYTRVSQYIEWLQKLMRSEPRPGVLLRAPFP

Coagulation factor X, sequence (P00742 41-179 limits assumed): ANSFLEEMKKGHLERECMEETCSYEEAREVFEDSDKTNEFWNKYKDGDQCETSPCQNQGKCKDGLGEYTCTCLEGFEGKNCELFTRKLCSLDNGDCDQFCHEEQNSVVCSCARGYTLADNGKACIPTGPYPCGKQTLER
Coagulation factor X, sequence (P00742 235-488 limits assumed): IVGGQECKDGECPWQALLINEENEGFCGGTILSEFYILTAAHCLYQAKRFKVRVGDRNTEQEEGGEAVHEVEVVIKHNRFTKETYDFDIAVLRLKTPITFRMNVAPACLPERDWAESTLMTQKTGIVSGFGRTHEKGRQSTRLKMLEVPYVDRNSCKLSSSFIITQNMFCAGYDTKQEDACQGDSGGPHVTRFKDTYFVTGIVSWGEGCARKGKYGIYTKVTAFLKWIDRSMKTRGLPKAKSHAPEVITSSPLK

Compound	pKi (Coagulation factor X)	pKi (Prothrombin)	pKi (Coagulation factor VII)
CC(NC(=O)CNC(=O)Nc1ccc(C(=N)N)cc1)c1ccc(C(F)(F)F)cc1C(F)(F)F (stereo not given)	< 5.00	< 4.00	–
C[C@H](NC(=O)CNC(=O)Nc1ccc(C(=N)N)cc1)c1ccc2c(c1)OCCO2	< 5.00	4.95	7.17
CC(C)(NC(=O)CNC(=O)Nc1ccc(C(=N)N)cc1)c1ccccc1	< 5.00	< 4.30	–
N=C(N)c1ccc(NC(=O)NCC(=O)NCc2ccc(Cl)c(Cl)c2)cc1	4.84	5.00	–
COc1cccc([C@H](C)NC(=O)CNC(=O)Nc2ccc(C(=N)N)cc2)c1	< 5.00	4.74	7.46
CC(NC(=O)CNC(=O)Nc1ccc(C(=N)N)cc1)c1ccc2c(c1)NC(=O)CO2 (stereo not given)	< 5.00	4.79	–
C[C@H](NC(=O)Nc1ccc(C(=N)N)cc1)C(=O)NCc1ccc(Cl)c(Cl)c1	–	–	4.34
C[C@H](NC(=O)CNC(=O)Nc1ccc(C(=N)N)c(F)c1)c1cccc(Br)c1	–	–	6.92
C[C@H](NC(=O)CNC(=O)Nc1ccc(C(=N)N)cc1)c1cccc(Br)c1	< 5.00	4.80	7.57
C[C@H](NC(=O)CNC(=O)Nc1ccc(C(=N)N)c(Cl)c1)c1cccc(Br)c1	–	–	5.42
C[C@H](NC(=O)CNC(=O)Nc1ccc(C(=N)N)cc1)c1ccccc1	< 5.00	4.29	–
C[C@@H](NC(=O)CNC(=O)Nc1ccc(C(=N)N)cc1)c1ccccc1	< 5.00	< 4.30	–
CC(NC(=O)CNC(=O)Nc1ccc(C(=N)N)c(F)c1)c1ccc2c(c1)NC(=O)CO2 (stereo not given)	–	–	6.33
N=C(N)c1ccc(NC(=O)NCC(=O)NCc2cccc(Br)c2)cc1	5.11	< 4.30	5.82
C[C@H](NC(=O)C(NC(=O)Nc1ccc(C(=N)N)cc1)c1ccccc1)c1cccc(Br)c1 (stereo not given in full)	–	–	5.49
C[C@@H](NC(=O)CNC(=O)Nc1ccc(C(=N)N)cc1)c1cccc(Br)c1	–	–	4.51
